Here are results for one compound from patent EP4076478B1, “COMPOSITION AND METHOD FOR THE TREATMENT OF TYPE I DIABETES” (Vector Vitale IP LLC, priority 2019, dated 2021).

The nature of this data set: Accumulation of metals in liver and kidney tissues after intraperitoneal administration. Format: in vivo, rats. The following applies: day 1 and day 7 after discontinuation of the substances.

`CC(=O)[O-].CC(=O)[O-].[Zn+2]` [Zn acetate, Zn(CH3COO)2]: the “zinc in the kidney and liver tissues” value is reported as “significantly increased”.
